Structures are written as SMILES. Calls of active or inactive are those of the source. The calls are words filed in the database; no cut-off is given here.

Poly [ADP-ribose] polymerase 2, sequence (Q9UGN5 whole entry): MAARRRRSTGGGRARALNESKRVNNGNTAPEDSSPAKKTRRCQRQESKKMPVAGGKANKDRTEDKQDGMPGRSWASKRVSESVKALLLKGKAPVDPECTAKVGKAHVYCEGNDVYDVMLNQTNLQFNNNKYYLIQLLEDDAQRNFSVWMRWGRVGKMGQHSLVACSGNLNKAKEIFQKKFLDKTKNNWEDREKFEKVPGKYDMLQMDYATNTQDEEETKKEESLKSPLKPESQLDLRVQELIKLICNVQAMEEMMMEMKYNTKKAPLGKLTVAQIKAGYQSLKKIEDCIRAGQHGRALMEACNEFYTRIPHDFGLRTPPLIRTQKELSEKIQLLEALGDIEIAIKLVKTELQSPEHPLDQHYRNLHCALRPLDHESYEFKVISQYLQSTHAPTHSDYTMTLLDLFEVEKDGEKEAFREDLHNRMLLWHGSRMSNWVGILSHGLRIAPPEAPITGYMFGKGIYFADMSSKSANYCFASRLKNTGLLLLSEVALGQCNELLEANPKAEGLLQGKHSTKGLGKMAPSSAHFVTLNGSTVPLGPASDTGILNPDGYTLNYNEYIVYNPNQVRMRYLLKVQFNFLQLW

The subject of the first series is SK-OV-3. The series is described as follows: Antitumor activity against human SK-OV-3 cells xenografted in BALB/c nude mouse assessed as decrease in tumor volume at 50 mg/kg, po administered once daily measured for 28 days. The class given is functional, organism-based. The settings on record: time 28.0 day. Background: In xenograft studies the graft and the host belong to different species.
On to `O=C(c1cc(Cc2n[nH]c(=O)c3ccccc23)ccc1F)N1CCN(C(=O)C2CC2)CC1` [OLAPARIB], for which the result was Active.

The test system of the next series is SK-OV-3. In words: Antitumor activity against human SK-OV-3 cells xenografted in BALB/c nude mouse assessed as relative tumor volume at 50 mg/kg, po administered once daily for 12 days. The class given is functional. As to conditions: time 12 day.
On to `O=C(c1cc(Cc2n[nH]c(=O)c3ccccc23)ccc1F)N1CCN(C(=O)C2CC2)CC1` [OLAPARIB], for which the Activity was 2.12.

System in the next series: not listed separately
The series is described as follows: Hepatotoxicity in ICR mouse assessed as effect on AST level at 1000 mg/kg, po administered only once at day 1 and measured every two days for 14 days (reference value: 61.5 +/- 3.7 U/L). The class given is toxicity, organism-based. As to conditions: in vivo, 336 h, time 14 day.
Take `O=C(c1cccs1)N1CCN(Cc2c(O)cc(O)c3c(=O)cc(-c4ccc(O)cc4)oc23)CC1`: the Activity worked out at 77.6 U/L.
On the same count and under the same terms, under `O=C(c1ccco1)N1CCN(Cc2c(O)cc(O)c3c(=O)cc(-c4ccc(O)cc4)oc23)CC1` stands 79.3 U/L.

System in another series: not listed separately
The series is described as follows: Acute toxicity in ICR mouse assessed as change in body weight at 1000 mg/kg, po administered only once at day 1 and measured every two days for 14 days. Format: organism-based. The settings on record: in vivo, 336 h, time 14 day.
Turning to `O=C(c1cccs1)N1CCN(Cc2c(O)cc(O)c3c(=O)cc(-c4ccc(O)cc4)oc23)CC1`, the Activity entry is given as “Non-Toxic”.
The same measure, in the same setting: under `O=C(c1ccco1)N1CCN(Cc2c(O)cc(O)c3c(=O)cc(-c4ccc(O)cc4)oc23)CC1` stands “Non-Toxic”.

System in a further series: not listed separately
In words: Acute toxicity in ICR mouse assessed as effect on kidney at 1000 mg/kg, po administered only once at day 1 and measured every two days for 14 days. The class given is organism-based. The settings on record: in vivo, 336 h, time 14 day.
As for `O=C(c1cccs1)N1CCN(Cc2c(O)cc(O)c3c(=O)cc(-c4ccc(O)cc4)oc23)CC1`, the Activity entry was “Toxic”.
`O=C(c1ccco1)N1CCN(Cc2c(O)cc(O)c3c(=O)cc(-c4ccc(O)cc4)oc23)CC1`: the Activity result is recorded as “Toxic”.

The target of the next series is Poly [ADP-ribose] polymerase 1 (Homo sapiens, UniProt P09874). The series is described as follows: Inhibition of recombinant human full-length PARP-1 using biotinylated substrate.
Poly [ADP-ribose] polymerase 1, sequence (P09874 whole entry): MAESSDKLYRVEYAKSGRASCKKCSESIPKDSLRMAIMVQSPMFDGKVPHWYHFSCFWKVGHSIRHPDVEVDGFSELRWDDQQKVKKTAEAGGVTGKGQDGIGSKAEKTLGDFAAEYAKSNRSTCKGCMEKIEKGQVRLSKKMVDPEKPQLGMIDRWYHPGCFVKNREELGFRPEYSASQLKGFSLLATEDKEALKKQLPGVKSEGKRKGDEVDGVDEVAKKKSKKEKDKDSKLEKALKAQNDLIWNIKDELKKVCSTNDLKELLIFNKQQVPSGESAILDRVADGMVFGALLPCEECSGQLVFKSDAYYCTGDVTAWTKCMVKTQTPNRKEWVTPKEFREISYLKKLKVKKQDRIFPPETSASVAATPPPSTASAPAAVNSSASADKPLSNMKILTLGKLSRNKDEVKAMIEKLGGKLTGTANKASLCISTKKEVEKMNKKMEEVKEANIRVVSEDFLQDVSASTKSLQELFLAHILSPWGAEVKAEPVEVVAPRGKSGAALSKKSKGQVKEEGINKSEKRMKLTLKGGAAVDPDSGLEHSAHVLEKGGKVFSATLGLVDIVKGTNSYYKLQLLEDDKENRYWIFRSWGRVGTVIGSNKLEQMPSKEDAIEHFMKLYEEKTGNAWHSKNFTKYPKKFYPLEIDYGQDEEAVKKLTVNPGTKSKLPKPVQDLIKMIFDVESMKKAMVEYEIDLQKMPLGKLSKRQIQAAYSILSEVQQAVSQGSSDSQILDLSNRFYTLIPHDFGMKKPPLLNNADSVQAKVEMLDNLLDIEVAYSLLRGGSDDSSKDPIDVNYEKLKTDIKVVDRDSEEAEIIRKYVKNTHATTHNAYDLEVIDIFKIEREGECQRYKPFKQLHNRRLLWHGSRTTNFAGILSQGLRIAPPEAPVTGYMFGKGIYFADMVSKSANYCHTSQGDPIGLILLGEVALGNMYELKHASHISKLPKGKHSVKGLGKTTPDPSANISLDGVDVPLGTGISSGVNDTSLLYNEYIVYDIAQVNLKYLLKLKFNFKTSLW
Conditions: not given
As usually defined, the IC50 is the concentration needed to halve the response being measured. As for `Cc1ccc(-c2cc(=O)c3c(O)cc(O)c(-c4cccc(-c5cc(=O)c6c(O)cc(O)cc6o5)c4)c3o2)cc1C`, the half-inhibitory concentration (IC50) came to 250 nM.
For the molecule `O=c1cc(-c2ccc(O)cc2)oc2c(CN3CCN(c4ccccc4O)CC3)c(O)cc(O)c12`, the IC50 amounted to 37 nM.
On the same count and under the same terms, in the case of `CC(C)CCN1CCN(Cc2c(O)cc(O)c3c(=O)cc(-c4ccc(O)cc4)oc23)CC1` it was 70.6 nM; in that of `O=C(C1CCCCC1)N1CCN(Cc2c(O)cc(O)c3c(=O)cc(-c4ccc(O)cc4)oc23)CC1`, 44.5 nM.
Still for that read-out and setting: in the case of `O=c1cc(-c2ccc(O)cc2)oc2c(CN3CCN(c4ccc(C(F)(F)F)cc4)CC3)c(O)cc(O)c12` it was 49.8 nM.
Still for that read-out and setting: under `O=c1cc(-c2cccc(-c3c(O)cc(O)c4c(=O)cc(-c5ccc(O)c(O)c5)oc34)c2)oc2cc(O)cc(O)c12` stands 642 nM.
For the molecule `O=C(c1cccs1)N1CCN(Cc2c(O)cc(O)c3c(=O)cc(-c4ccc(O)cc4)oc23)CC1`, the IC50 was determined as 15.8 nM.
On to `O=C(c1ccc(Cl)cc1)N1CCN(Cc2c(O)cc(O)c3c(=O)cc(-c4ccc(O)cc4)oc23)CC1`, for which the 50% inhibitory concentration (IC50) was determined as 56.2 nM.
On the same count and under the same terms, in the case of `O=C(c1ccco1)N1CCN(Cc2c(O)cc(O)c3c(=O)cc(-c4ccc(O)cc4)oc23)CC1` it was 13.7 nM.

The next series deals with SK-OV-3. The series is described as follows: Cytotoxicity against human BRCA-1 deficient SK-OV-3 cells assessed as reduction in cell viability at 0.1 to 10 uM incubated for 48 hrs by MTT assay. Format: functional, cell-based. The settings on record: dose 0.1-10 µM. (In general: Tetrazolium dyes change colour on reduction, which living cells bring about.)
With `O=C(c1cccs1)N1CCN(Cc2c(O)cc(O)c3c(=O)cc(-c4ccc(O)cc4)oc23)CC1`, the result was Active.
As to `O=C(c1ccco1)N1CCN(Cc2c(O)cc(O)c3c(=O)cc(-c4ccc(O)cc4)oc23)CC1`, the outcome was Active.

System in the next series: not listed separately
In words: Hepatotoxicity in ICR mouse assessed as effect on ALT level at 1000 mg/kg, po administered only once at day 1 and measured every two days for 14 days (reference value: 28.6 +/- 6.9 U/L). The class given is toxicity, organism-based. The settings on record: in vivo, 336 h, time 14 day.
As to `O=C(c1cccs1)N1CCN(Cc2c(O)cc(O)c3c(=O)cc(-c4ccc(O)cc4)oc23)CC1`, the Activity stood at 29.6 U/L.
Still for that read-out and setting: in the case of `O=C(c1ccco1)N1CCN(Cc2c(O)cc(O)c3c(=O)cc(-c4ccc(O)cc4)oc23)CC1` it was 31.2 U/L.

System in a further series: not listed separately
In words: Renal toxicity in ICR mouse assessed as effect on BUN level at 1000 mg/kg, po administered only once at day 1 and measured every two days for 14 days (reference value: 8.9 +/- 0.9 mmol/L). The class given is organism-based. As to conditions: in vivo, 336 h, time 14 day.
As to `O=C(c1cccs1)N1CCN(Cc2c(O)cc(O)c3c(=O)cc(-c4ccc(O)cc4)oc23)CC1`, the Activity amounted to 10.3 mmol/L.
On the same count and under the same terms, under `O=C(c1ccco1)N1CCN(Cc2c(O)cc(O)c3c(=O)cc(-c4ccc(O)cc4)oc23)CC1` stands 9.1 mmol/L.

System in the next series: not listed separately
The series is described as follows: Acute toxicity in ICR mouse assessed as effect on spleen at 1000 mg/kg, po administered only once at day 1 and measured every two days for 14 days. Format: organism-based. As to conditions: in vivo, 336 h, time 14 day.
For the molecule `O=C(c1cccs1)N1CCN(Cc2c(O)cc(O)c3c(=O)cc(-c4ccc(O)cc4)oc23)CC1`, the Activity result was “Toxic”.
Same read-out and setting: in the case of `O=C(c1ccco1)N1CCN(Cc2c(O)cc(O)c3c(=O)cc(-c4ccc(O)cc4)oc23)CC1` it was “Toxic”.

The next series has as its system A549. In words: Cytotoxicity against human A549 cells assessed as induction of CBP cytotoxicity incubated for 48 hrs in presence of CBP by MTT assay. Format: functional, cell-based. As to conditions: dose 0.1-10 µM.
Regarding `O=C(c1cccs1)N1CCN(Cc2c(O)cc(O)c3c(=O)cc(-c4ccc(O)cc4)oc23)CC1`, the Activity entry is “Dose-Dependent Effect”.
As for `O=C(c1ccco1)N1CCN(Cc2c(O)cc(O)c3c(=O)cc(-c4ccc(O)cc4)oc23)CC1`, the Activity result is “Dose-Dependent Effect”.

Another series concerns the target Poly [ADP-ribose] polymerase 2 (Homo sapiens, UniProt Q9UGN5). The series is described as follows: Inhibition of recombinant human full-length PARP-2 using biotinylated substrate.
Conditions: not given
Consider `Cc1ccc(-c2cc(=O)c3c(O)cc(O)c(-c4cccc(-c5cc(=O)c6c(O)cc(O)cc6o5)c4)c3o2)cc1C`, for which the IC50 was found to be 12700 nM.
For the molecule `O=c1cc(-c2ccc(O)cc2)oc2c(CN3CCN(c4ccccc4O)CC3)c(O)cc(O)c12`, the IC50 was 2000 nM.
On the same count and under the same terms, in the case of `CC(C)CCN1CCN(Cc2c(O)cc(O)c3c(=O)cc(-c4ccc(O)cc4)oc23)CC1` it was 3700 nM; in that of `O=C(C1CCCCC1)N1CCN(Cc2c(O)cc(O)c3c(=O)cc(-c4ccc(O)cc4)oc23)CC1`, 2300 nM; in that of `O=c1cc(-c2ccc(O)cc2)oc2c(CN3CCN(c4ccc(C(F)(F)F)cc4)CC3)c(O)cc(O)c12`, 2800 nM.
Regarding `O=c1cc(-c2cccc(-c3c(O)cc(O)c4c(=O)cc(-c5ccc(O)c(O)c5)oc34)c2)oc2cc(O)cc(O)c12`, the IC50 was determined as 29500 nM.
On the same count and under the same terms, under `O=C(c1cccs1)N1CCN(Cc2c(O)cc(O)c3c(=O)cc(-c4ccc(O)cc4)oc23)CC1` stands 1100 nM; under `O=C(c1ccc(Cl)cc1)N1CCN(Cc2c(O)cc(O)c3c(=O)cc(-c4ccc(O)cc4)oc23)CC1`, 3000 nM; under `O=C(c1ccco1)N1CCN(Cc2c(O)cc(O)c3c(=O)cc(-c4ccc(O)cc4)oc23)CC1`, 800 nM.

The species named for a further series is Homo sapiens. In words: Selectivity index, ratio of IC50 for inhibition of recombinant human full-length PARP-2 to IC50 for inhibition of recombinant human full-length PARP-1.
Conditions: not given
For the molecule `Cc1ccc(-c2cc(=O)c3c(O)cc(O)c(-c4cccc(-c5cc(=O)c6c(O)cc(O)cc6o5)c4)c3o2)cc1C`, the Ratio IC50 was determined as 50.9.
Still for that read-out and setting: in the case of `O=c1cc(-c2ccc(O)cc2)oc2c(CN3CCN(c4ccccc4O)CC3)c(O)cc(O)c12` it was 54.
On to `CC(C)CCN1CCN(Cc2c(O)cc(O)c3c(=O)cc(-c4ccc(O)cc4)oc23)CC1`, for which the Ratio IC50 worked out at 52.4.
The same measure, in the same setting: in the case of `O=C(C1CCCCC1)N1CCN(Cc2c(O)cc(O)c3c(=O)cc(-c4ccc(O)cc4)oc23)CC1` it was 51.7; in that of `O=c1cc(-c2ccc(O)cc2)oc2c(CN3CCN(c4ccc(C(F)(F)F)cc4)CC3)c(O)cc(O)c12`, 56.2.
As for `O=c1cc(-c2cccc(-c3c(O)cc(O)c4c(=O)cc(-c5ccc(O)c(O)c5)oc34)c2)oc2cc(O)cc(O)c12`, the Ratio IC50 came out at 45.9.
Take `O=C(c1cccs1)N1CCN(Cc2c(O)cc(O)c3c(=O)cc(-c4ccc(O)cc4)oc23)CC1`: the Ratio IC50 is 69.6.
As to `O=C(c1ccc(Cl)cc1)N1CCN(Cc2c(O)cc(O)c3c(=O)cc(-c4ccc(O)cc4)oc23)CC1`, the Ratio IC50 is 53.4.
Take `O=C(c1ccco1)N1CCN(Cc2c(O)cc(O)c3c(=O)cc(-c4ccc(O)cc4)oc23)CC1`: the Ratio IC50 was 68.3.

A further series relates to A549. In words: Cytotoxicity against human A549 cells assessed as reduction in cell viability at 0.1 to 10 uM incubated for 48 hrs by MTT assay. Format: functional, cell-based. As to conditions: dose 0.1-10 µM.
As for `O=C(c1cccs1)N1CCN(Cc2c(O)cc(O)c3c(=O)cc(-c4ccc(O)cc4)oc23)CC1`, the result was inactive.
Same read-out and setting: under `O=C(c1ccco1)N1CCN(Cc2c(O)cc(O)c3c(=O)cc(-c4ccc(O)cc4)oc23)CC1` stands “inactive”.

System in another series: not listed separately
In words: Acute toxicity in ICR mouse assessed as change in blood routine at 1000 mg/kg, po administered only once at day 1 and measured every two days for 14 days. The class given is organism-based. The settings on record: in vivo, 336 h, time 14 day.
Regarding `O=C(c1cccs1)N1CCN(Cc2c(O)cc(O)c3c(=O)cc(-c4ccc(O)cc4)oc23)CC1`, the Activity entry is listed as “Non-Toxic”.
Consider `O=C(c1ccco1)N1CCN(Cc2c(O)cc(O)c3c(=O)cc(-c4ccc(O)cc4)oc23)CC1`, for which the Activity entry is “Non-Toxic”.

Values taken from ChEMBL document CHEMBL4842357, “Discovery of Novel Apigenin-Piperazine Hybrids as Potent and Selective Poly (ADP-Ribose) Polymerase-1 (PARP-1) Inhibitors for the Treatment of Cancer” (J Med Chem, 2021).
